In the case of `CC1CC(=O)NN=C1c1ccc(N)c([N+](=O)[O-])c1` (stereo unspecified), the melting point is reported as 234 to 238 °C. Compound `Cn1nc(-c2ncc(Cl)cc2F)c(N)c1OC(F)F` has a melting point of 92 to 94 °C. With `C[C@@H]1Cc2ccsc2[C@H](C)N1CCNC(=O)c1c(F)c(F)c(F)c(F)c1F` (relative stereo) the melting point was 116 to 119 °C. Work on `C#Cc1ccc(CO[C@@H]2COc3nc([N+](=O)[O-])cn3C2)nc1` yielded a melting point of 135 to 136 °C. With `COC(=O)c1cncn1C(c1ccccc1)c1ccccn1` (stereo unspecified) the melting point was 96.3 °C. `CCCc1nc2c(N)nc3ccccc3c2n1CCCCCC(=O)N1CCOCC1` showed a melting point of 149 to 151 °C. In the case of `COc1cc(C(C)=O)cc(OC)c1OCCOc1ccc2ccccc2c1`, the melting point is reported as 76 to 77 °C. For `CC(CS)C(=O)NC(C(=O)O)C(C)C` (stereo unspecified), the melting point was 150 to 157 °C. Compound `CC(C)Cn1c(C(=O)OC(C)(C)C)c(-c2ccccc2)c2cc(OCc3ccccc3)ccc2c1=O` has a melting point of 138 to 139 °C. `Fc1ccccc1Cn1cnc2c(NC3CC3)nc(C(F)(F)F)nc21` showed a melting point of 118 to 119 °C. `CNCC1(C)Cc2cc(NC)c3c(c2C(c2ccccc2)=N1)CC(C)(C)O3` (stereo unspecified) showed a melting point of 126 to 128 °C. Compound `COc1cc(Nc2c(C#N)cnc3ccc(-c4csc(C=O)c4)cc23)c(Cl)cc1Cl` has a melting point of 233 to 237 °C. For `COc1ccc2cc(OCc3ccccc3)c(C(=O)OCc3ccccc3)cc2c1`, the melting point was 96 to 98 °C. Compound `O=C(O)c1cnccc1-c1ccccc1` has a melting point of 245 to 246 °C. `CC(C)(C)COc1c(-c2ccc(S(C)(=O)=O)cc2)cnn(-c2cccc(Cl)c2)c1=O` gave a melting point of 151 to 153 °C. In the case of `O=C1CCN(Cc2ncccc2O)CC1C(c1ccccc1)c1ccccc1` (stereo unspecified), the melting point is reported as 121 to 122 °C. In the case of `O=C(O)c1ccccc1Oc1ccc(Br)cc1[N+](=O)[O-]`, the melting point is reported as 136 to 138 °C. Compound `CC1(C)OCC[C@@H]2[C@@H](NC(=O)OCc3ccccc3)C(=O)N21` (relative stereo) has a melting point of 129 to 131 °C. With `CC(C)(C)OC(=O)C1C(C#CC(=O)OCC(Cl)(Cl)Cl)C1(C)C` (stereo unspecified) the melting point was 70 to 71 °C. For `CCOC(=O)CCn1c(CC(=O)OCC)nc2c(N3CCCCC3)cccc21`, the melting point was 82 to 85 °C. Work on `CSc1nn(C(=O)NC(C)CCl)c(=O)n1N` (stereo unspecified) yielded a melting point of 136 °C. With `O=S(=O)(Nc1cccc(CCOCc2ccc(-c3ccc(Cl)c(Cl)c3)cc2F)c1)C(F)(F)F` the melting point was 102 to 104 °C. `CCOC(=O)C=C(C)Nc1ccc(F)c(OCc2ccccc2)c1` gave a melting point of 79 to 80 °C. `O=C(Nc1ccccc1)OCC(=O)c1ccccc1` showed a melting point of 146 to 148 °C. Work on `CCCCCCCCCCCCc1nnn(C(C(=O)Nc2c(OC)cc(OC)cc2OC)C(C)C)n1` (stereo unspecified) yielded a melting point of 135 to 137 °C. In the case of `O=C(Nc1ccc2nc(CN3CCCC3)ccc2c1)N1CCC(c2ccccc2)CC1`, the melting point is reported as 187 to 189 °C. `CCOc1ccc(-c2nc(OC)ccc2N2CCC(c3ccc(OC)cc3)N(C)CC2)cc1` (stereo unspecified) showed a melting point of 103 to 107 °C. `COc1ccc(C2(O)CCN(CC(O)c3ccc(OCc4ccccc4)cc3)CC2)cn1` (stereo unspecified) showed a melting point of 199 °C. Work on `COc1cc2c(cc1-c1cncs1)-c1c(-c3cncs3)c3c(n1CC2)C(=O)N(C(C)(C)C)CCOC3` yielded a melting point of 254 to 255 °C. Work on `CON=C(C(=O)O)c1csc(NC(=O)OCC(Cl)(Cl)Cl)n1` yielded a melting point of 162 to 163 °C. With `CCCn1cc(-c2nc(C(N)=O)c(N)nc2-c2ccccc2)ccc1=O` the melting point was over 250 °C. In the case of `CCOC(=O)C1=C(N)NC2=C(C(=O)CCC2)C1c1ccccc1Br` (stereo unspecified), the melting point is reported as 245 °C. Compound `O=C(O)c1csc(Br)n1` has a melting point of 227 to 229 °C. `CCN(CCOC)C(=O)c1cc(-c2ccccc2)c(=O)n2c1-c1ccccc1C2` gave a melting point of 139 to 140 °C. `O=c1cnc2c(NCCO)nc(SCc3cccc(C(F)(F)F)c3F)nc2[nH]1` gave a melting point of 221 to 222 °C. Compound `C=Cn1cc(C(=O)OCC)c(=O)c2cc(F)c(N3CCNCC3)cc21` has a melting point of 208 to 210 °C. Work on `C[N+](C)(CCl)CCCC(=O)[O-]` yielded a melting point of 100 to 101 °C. Compound `Nc1cc(OCc2ccccc2)c(C(=O)NC2CN3CCC2CC3)cc1Cl` (stereo unspecified) has a melting point of 170 to 171 °C. `CC(=O)Nc1cc(Cl)ccc1CCOC(C)=O` showed a melting point of 129 °C. Compound `O=C(NCC(c1ccccc1)c1ccccc1)N1CCC(C(=O)O)(c2ccccc2)CC1` has a melting point of 173 to 174 °C. Compound `CN(C)C(=O)N(O)Cc1cc2ccccc2s1` has a melting point of 145 to 147 °C. For `CCOc1nn(-c2ccccn2)cc1CCCOc1cc(CCC(=O)O)n(-c2ccccc2)n1`, the melting point was 156 to 157 °C. With `COC(=O)CCCON1CCNC1=Nc1c(Cl)cccc1Cl` the melting point was 95 to 96 °C. `COC(=O)c1cc([N+](=O)[O-])c(N2CCSC2=N)c([N+](=O)[O-])c1` showed a melting point of 138 °C. Compound `COC(=O)c1cc(OCc2cn(-c3ccc(C(F)(F)F)cn3)nc2C(C)C)nn1C` has a melting point of 114 to 115 °C. For `CC(=O)NC1C(NC(=O)NCCCl)OC(CO)C(O)C1O` (stereo unspecified), the melting point was 181 to 182 °C. In the case of `O=S(=O)(c1cc(F)ccc1F)N1CCNc2ncc(I)cc21`, the melting point is reported as 187 to 188 °C. Compound `CCOC(=O)C1=NOC(c2ccccc2)(c2ccccc2)C1` has a melting point of 78 to 81 °C. With `CCCCn1nc(C)c(C(=O)O)c1Cc1ccc(-c2ccccc2S(=O)(=O)NC(=O)OC(C)(C)C)cc1` the melting point was 92 to 96 °C. `Cc1cc2ccc3c(c2o1)OC(CN1CC=C(c2c[nH]c4ccccc24)CC1)CO3` (stereo unspecified) gave a melting point of 198 to 200 °C. Work on `Cn1nc(-c2c(Cl)cccc2Cl)nc1-c1ccc(Br)s1` yielded a melting point of 130 to 132 °C. In the case of `CCSc1c2ccccc2c(C=O)c2ccccc12`, the melting point is reported as 74 to 75.5 °C. Compound `COc1ccc2c(c1OC)C(=O)c1ccccc1-2` has a melting point of 110 to 111 °C. In the case of `CNC(=O)Oc1cccc(NC(=O)CC(C)(OC)OC)c1`, the melting point is reported as 139 °C. `O=S(=O)(c1cnn(-c2c(Cl)cc(C(F)(F)F)cc2Cl)c1-n1cccn1)C(F)(F)F` showed a melting point of 127 to 133 °C. With `O=c1oc2ccccc2c(O)c1-c1ccc(Cl)c(Cl)c1` the melting point was 262 °C. In the case of `N#CCCN1C(=O)C2(COc3cc4c(cc32)OCO4)c2ccccc21` (stereo unspecified), the melting point is reported as 200 to 202 °C. Work on `O=C(c1ccccc1)c1cc2ccccc2o1` yielded a melting point of 88 to 90 °C. `O=CNCC1CN(c2c(F)cc3c(=O)c(C(=O)O)cn(-c4ccc(F)cc4F)c3c2F)CCO1` (stereo unspecified) showed a melting point of 230 to 233 °C. Work on `O=C1N(C(c2ccccc2)c2ccccc2)c2cc(F)ccc2C1(O)c1cc2c(cc1O)OCC2` (stereo unspecified) yielded a melting point of 147 to 149 °C. For `N#Cc1[nH]c2ccc(Cl)cc2c1-c1ccccc1F`, the melting point was 185 to 186 °C. For `Cn1cc(C(=O)O)cc1Cl`, the melting point was 201 to 203 °C. In the case of `C=C(C)C(=O)OCc1ccc(OC2CCCCO2)cc1` (stereo unspecified), the melting point is reported as 36 to 36.7 °C. `COC(=O)c1c(OC)c([N+](=O)[O-])c(C(=O)OC)c(OC)c1[N+](=O)[O-]` gave a melting point of 126 to 127 °C. In the case of `COC(=O)c1ccc(-c2ccc(Cl)cc2)c(-c2ccc(Cl)cc2Cl)c1`, the melting point is reported as 136 °C. `O=[N+]([O-])c1ccc2c(C3=CCN(C[C@H](O)COc4cccc5[nH]ccc45)CC3)c[nH]c2c1` showed a melting point of 225 to 230 °C. For `OCc1cccc2nc(-c3ccccc3)oc12`, the melting point was 131 °C. For `COc1cc(Nc2c(C#N)cnc3cc(-c4cccc(CCN5CCOCC5)c4)ccc23)c(Cl)cc1Cl`, the melting point was 146 to 148 °C. For `Cc1sc2c(Br)c3ccccc3c(-c3cc(Br)c(O[C@@H](CCc4ccccc4)C(=O)O)c(Br)c3)c2c1C`, the melting point was 176 to 177 °C. `CCOC(=O)COc1ccc(NC(=O)NC(=O)c2ccc(C#N)cc2)cc1` gave a melting point of 200 to 203 °C. In the case of `CCCCCS(=O)(=O)NC/C=C/c1ccc(OCCOC)cc1Oc1ncc(C(F)(F)F)cc1Cl`, the melting point is reported as 106 °C.

— a melting point compilation (Tetko et al.; mined from patent text by program, amines drawn as free bases though some values may be those of a salt)
